What all share (test): relative viability (nuclei count vs DMSO), 5 days (fraction); higher = more cells survive
Compound in assay [1]: C1=CC2=NC=CN=C2C=C1/C=C/3\C(=O)NC(=O)S3 + Cc1cc(Nc2cc(N3CCN(C)CC3)nc(Sc3ccc(NC(=O)C4CC4)cc3)n2)n[nH]1 [Tozasertib] (partner 0.1 µM)
Summed up:
(§1)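 Values are medians from duplicate plates. Each reflects relative viability, defined as the nuclei count of treated wells over that of vehicle wells. Lung cancer cell lines in 1536-well plates were pin-tool dosed one day after seeding with one drug alone or with a fixed anchor-drug dose plus five library-drug doses (not always all listed) in √10 steps, then fixed, stained and imaged at 4× after 5 days.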

Compound in the assay “BGJ398 + Alpelisib”: CCN1CCN(c2ccc(Nc3cc(N(C)C(=O)Nc4c(Cl)c(OC)cc(OC)c4Cl)ncn3)cc2)CC1 [BGJ398] + Cc1nc(NC(=O)N2CCC[C@H]2C(N)=O)sc1-c1ccnc(C(C)(C)C(F)(F)F)c1 [Alpelisib] (partner 2 µM)
Summed up:
as §1

Compound in assay [2]: C1=CC2=NC=CN=C2C=C1/C=C/3\C(=O)NC(=O)S3 + NC(=O)Nc1cc(-c2cccc(F)c2)sc1C(=O)N[C@H]1CCCNC1 [AZD7762] (partner 0.2 µM)
In a few lines:
as §1

Compound in assay [3]: C1=CC2=NC=CN=C2C=C1/C=C/3\C(=O)NC(=O)S3 + COc1cccc2cc(-c3nc([C@H]4CC[C@H](C(=O)O)CC4)n4ncnc(N)c34)[nH]c12 [OSI-027] (partner 0.5 µM)
In a few lines: as §1

For NCI-H322M, the relative viability in assay [1] (first compound 0.02 µM) came out at 0.523; in assay [1] (first compound 0.06325 µM), 0.466; in assay [1] (first compound 0.2 µM) it was 0.482; in assay [1] (first compound 0.6325 µM) it was 0.461; in assay [1] (first compound 2 µM), 0.425; with BGJ398 + Alpelisib (first compound 0.01 µM), 0.772. Moreover, the relative viability was determined as 0.741 with BGJ398 + Alpelisib (first compound 0.03162 µM); 0.851 in the assay with BGJ398 + Alpelisib (first compound 0.1 µM); 0.761 with BGJ398 + Alpelisib (first compound 0.3162 µM); 0.813 with BGJ398 + Alpelisib (first compound 1 µM); 0.559 in assay [2] (first compound 0.02 µM); 0.598 in assay [2] (first compound 0.06325 µM). In addition, the relative viability in assay [2] (first compound 0.2 µM) is 0.607; in assay [2] (first compound 0.6325 µM), 0.51; in assay [2] (first compound 2 µM), 0.498; in assay [3] (first compound 0.02 µM) it was 0.546; in assay [3] (first compound 0.06325 µM) it was 0.478; in assay [3] (first compound 0.2 µM) it was 0.497. Also, the relative viability in assay [3] (first compound 0.6325 µM) was determined as 0.53; in assay [3] (first compound 2 µM) it was 0.384.

NCI-H2170: the relative viability in assay [1] (first compound 0.02 µM) amounted to 0.6; in assay [1] (first compound 0.06325 µM), 0.697; in assay [1] (first compound 0.2 µM) it was 0.689; in assay [1] (first compound 0.6325 µM), 0.734; in assay [1] (first compound 2 µM) it was 0.795; with BGJ398 + Alpelisib (first compound 0.01 µM), 0.815. Besides, the relative viability in the assay with BGJ398 + Alpelisib (first compound 0.03162 µM) was 0.756; with BGJ398 + Alpelisib (first compound 0.1 µM) it was 0.938; with BGJ398 + Alpelisib (first compound 0.3162 µM) it was 0.734; in the assay with BGJ398 + Alpelisib (first compound 1 µM) it was 0.853; in assay [2] (first compound 0.02 µM) it was 0.849; in assay [2] (first compound 0.06325 µM) it was 0.866. Moreover, the relative viability worked out at 0.888 in assay [2] (first compound 0.2 µM); 0.766 in assay [2] (first compound 0.6325 µM); 0.874 in assay [2] (first compound 2 µM); 0.714 in assay [3] (first compound 0.02 µM); 0.777 in assay [3] (first compound 0.06325 µM); 0.729 in assay [3] (first compound 0.2 µM). For the same cell line, the relative viability in assay [3] (first compound 0.6325 µM) was 0.71; in assay [3] (first compound 2 µM) it was 0.679.

For the cell line NCI-H1395, the relative viability was 0.725 in assay [1] (first compound 0.02 µM); 0.794 in assay [1] (first compound 0.06325 µM); 0.777 in assay [1] (first compound 0.2 µM); 0.729 in assay [1] (first compound 0.6325 µM); 0.809 in assay [1] (first compound 2 µM); 0.982 in the assay with BGJ398 + Alpelisib (first compound 0.01 µM). Moreover, the relative viability in the assay with BGJ398 + Alpelisib (first compound 0.03162 µM) is 1.02; with BGJ398 + Alpelisib (first compound 0.1 µM), 0.994; in the assay with BGJ398 + Alpelisib (first compound 0.3162 µM), 0.719; in the assay with BGJ398 + Alpelisib (first compound 1 µM), 0.604; in assay [2] (first compound 0.02 µM), 0.392; in assay [2] (first compound 0.06325 µM) it was 0.393. In addition, the relative viability came out at 0.424 in assay [2] (first compound 0.2 µM); 0.372 in assay [2] (first compound 0.6325 µM); 0.411 in assay [2] (first compound 2 µM); 0.667 in assay [3] (first compound 0.02 µM); 0.64 in assay [3] (first compound 0.06325 µM); 0.738 in assay [3] (first compound 0.2 µM). The figures for the relative viability in assay [3] (first compound 0.6325 µM) and in assay [3] (first compound 2 µM) were 0.588 and 0.583, respectively.

On to NCI-H358, for which the relative viability came out at 0.1 in assay [1] (first compound 0.02 µM); 0.11 in assay [1] (first compound 0.06325 µM); 0.0984 in assay [1] (first compound 0.2 µM); 0.127 in assay [1] (first compound 0.6325 µM); 0.0886 in assay [1] (first compound 2 µM); 0.881 in the assay with BGJ398 + Alpelisib (first compound 0.01 µM). The relative viability with BGJ398 + Alpelisib (first compound 0.03162 µM) was 0.893; in the assay with BGJ398 + Alpelisib (first compound 0.1 µM) it was 0.857; with BGJ398 + Alpelisib (first compound 0.3162 µM), 0.97; with BGJ398 + Alpelisib (first compound 1 µM), 0.937; in assay [2] (first compound 0.02 µM), 0.556; in assay [2] (first compound 0.06325 µM) it was 0.406. Further, the relative viability stood at 0.621 in assay [2] (first compound 0.2 µM); 0.473 in assay [2] (first compound 0.6325 µM); 0.204 in assay [2] (first compound 2 µM); 0.869 in assay [3] (first compound 0.02 µM); 0.753 in assay [3] (first compound 0.06325 µM); 0.768 in assay [3] (first compound 0.2 µM). The relative viability in assay [3] (first compound 0.6325 µM) came to 0.623; in assay [3] (first compound 2 µM), 0.228.

As to NCI-H838, the relative viability was 0.299 in assay [1] (first compound 0.02 µM); 0.271 in assay [1] (first compound 0.06325 µM); 0.221 in assay [1] (first compound 0.2 µM); 0.238 in assay [1] (first compound 0.6325 µM); 0.242 in assay [1] (first compound 2 µM); 0.84 in the assay with BGJ398 + Alpelisib (first compound 0.01 µM). Further, the relative viability in the assay with BGJ398 + Alpelisib (first compound 0.03162 µM) was found to be 0.955; with BGJ398 + Alpelisib (first compound 0.1 µM), 0.968; in the assay with BGJ398 + Alpelisib (first compound 0.3162 µM) it was 0.895; in the assay with BGJ398 + Alpelisib (first compound 1 µM), 0.732; in assay [2] (first compound 0.02 µM) it was 0.915; in assay [2] (first compound 0.06325 µM), 0.915. Besides, the relative viability in assay [2] (first compound 0.2 µM) came out at 0.914; in assay [2] (first compound 0.6325 µM) it was 0.861; in assay [2] (first compound 2 µM), 0.685; in assay [3] (first compound 0.02 µM) it was 0.448; in assay [3] (first compound 0.06325 µM), 0.437; in assay [3] (first compound 0.2 µM), 0.438. Moreover, the relative viability in assay [3] (first compound 0.6325 µM) stood at 0.399; in assay [3] (first compound 2 µM), 0.226.

For CAL-12T, the relative viability in assay [1] (first compound 0.02 µM) was 0.289; in assay [1] (first compound 0.06325 µM), 0.383; in assay [1] (first compound 0.2 µM), 0.346; in assay [1] (first compound 0.6325 µM), 0.313; in assay [1] (first compound 2 µM) it was 0.331; with BGJ398 + Alpelisib (first compound 0.01 µM) it was 1.11. Besides, the relative viability is 1.37 in the assay with BGJ398 + Alpelisib (first compound 0.03162 µM); 1.25 with BGJ398 + Alpelisib (first compound 0.1 µM); 1.36 with BGJ398 + Alpelisib (first compound 0.3162 µM); 1.47 with BGJ398 + Alpelisib (first compound 1 µM); 0.675 in assay [2] (first compound 0.02 µM); 0.531 in assay [2] (first compound 0.06325 µM). The relative viability in assay [2] (first compound 0.2 µM) stood at 0.655; in assay [2] (first compound 0.6325 µM) it was 0.582; in assay [2] (first compound 2 µM), 0.726; in assay [3] (first compound 0.02 µM) it was 0.489; in assay [3] (first compound 0.06325 µM), 0.648; in assay [3] (first compound 0.2 µM), 0.741. Further, the relative viability was found to be 0.542 in assay [3] (first compound 0.6325 µM) and 0.33 in assay [3] (first compound 2 µM).

(Values after the supplement of paper PMC10307832.)
